Data set [1] deals with worker termites (Coptotermes formosanus). As to the kind of experiment: Formicidal test: treated filter paper in petri dish, termite mortality. The format is in vivo. Conditions: for mortality at 0.32 ppm / mortality at 1.6 ppm / mortality at 8 ppm / mortality at 40 ppm: Coptotermes formosanus, 96 h, read-out: Mortality of termites after four days. The text has this: Examples of the active compounds according to the present invention • I.1: 1-(6-chloro-3-pyridylmethyl)-2-nitromethylene-imidazolidine • I.2: 3-(6-chloro-3-pyridylmethyl)-2-nitromethylene-thiazolidine • I.3: imidacloprid
Comparative compounds • A: phoxim • B: chlorpyriphos Preparation of test formulation: • Solvent: 3 parts by weight of xylene • Emulsifier: 1 part by weight of polyoxyethylene-alkylphenyl-ether
To prepare a suitable formulation of the active compound, 1 part by weight of each of the active compounds was mixed with the above-mentioned amount of the solvent containing the above-mentioned amount of the emulsifier, and the mixture was diluted with water to a predetermined concentration.
1 ml of the aqueous solution prepared in the above-mentioned procedure was uniformly applied using a pipette onto a filter paper that was placed in petri dish of 9 cm diameter. Ten head of worker termites (Coptotermes formosanus) were replaced into the petri dish and it was kept in a constant temperature chamber at 25° C.
After four days, the mortality of the termites was investigated. This test procedure was carried out in duplicate per each concentration of the active compounds under test.

Data set [2] has as its system working termites and soldier termites (Coptotermes formosanus). The experiment in a line: whole plant or invertebrate. The note with it: for Degree of xylophagous damage in the pine tree block (0-5): after three weeks; for Mortality termites after three weeks: blocks aged four weeks at 40° C.; for mortality at 0.32 ppm / mortality at 1.6 ppm / mortality at 8 ppm / mortality at 40 ppm: Coptotermes formosanus, read-out: Mortality termites after three weeks. The format is in vivo. The procedure: Small blocks of Japanese redpine tree (2 cm×2 cm×2 cm) were soaked for one minute into the aqueous solution prepared by the similar procedure to Example 8.
After air-dried, they were kept in a constant temperature chamber at 40° C. for four weeks. Then each of the thus treated blocks was placed in a polymeric cup (10 cm diameter) containing 150 ml of sandy loam of 20% moisture content. Into each of the polymeric cups, 100 head of working termites and 10 head of soldier termites (Coptotermes formosanus) were released. After three weeks, the degree of xylophagous damage in the block and the mortality of the termites were investigated.

[3] abbreviates: 0.32 ppm active compound, filter paper, 25° C.
Setting [4] is: 1.6 ppm active compound, filter paper, 25° C.
Where [5] appears, read: 8 ppm active compound, filter paper, 25° C.
Setting [6] is: 40 ppm active compound, filter paper, 25° C.

Results on 3 compounds are retold here after US6936624B2, “Agents for preserving technical materials against insects” (Nihon Bayer Agrochem K.K., priority 1991, dated 2005).

For orientation: mortality means the percentage killed.

Like-named read-outs stand apart in the source and are kept apart here.

Regarding `CCOP(=S)(OCC)Oc1nc(Cl)c(Cl)cc1Cl` [B, 0,0-diethyl-3,5,6-trichloro-2-pyridylphosphorothioate, reference compound], the “Mortality of termites after four days” value in data set [1] (setting [3]), in data set [1] (setting [4]), in data set [1] (setting [5]) and in data set [1] (setting [6]) was 100% each time. In addition, the “Degree of xylophagous damage in the pine tree block (0-5)” value (“Degree of xylophagous damage” below) in data set [2] (0.32 ppm) is reported as 5; in data set [2] (1.6 ppm), 3; in data set [2] (8 ppm), 1; in data set [2] (40 ppm), 0. In addition, the “Mortality termites after three weeks” value in data set [2] (0.32 ppm) was 0%; in data set [2] (1.6 ppm) it was 0%; in data set [2] (8 ppm), 78%; in data set [2] (40 ppm) it was 100%.

Take `O=[N+]([O-])C=C1NCCN1Cc1ccc(Cl)nc1` [I.1, 1-(6-chloro-3-pyridylmethyl)-2-nitromethylene-imidazolidine]: the mortality at 0.32 ppm in data set [1] (setting [3]) was found to be 100%; in data set [2], 98%. Also, the mortality at 1.6 ppm in data set [1] (setting [4]) and in data set [2] was 100% each time. The mortality at 8 ppm in data set [1] (setting [5]) and in data set [2] was 100% each time. Besides, the mortality at 40 ppm in data set [1] (setting [6]) and in data set [2] was 100% each time. In addition, the “Degree of xylophagous damage” value in data set [2] (0.32 ppm) was 0.5; in data set [2] (1.6 ppm) it was 0; in data set [2] (8 ppm), 0; in data set [2] (40 ppm) it was 0.

For `O=[N+]([O-])C=C1SCCN1Cc1ccc(Cl)nc1` [I.2, 3-(6-chloro-3-pyridylmethyl)-2-nitromethylene-thiazolidine], the mortality at 0.32 ppm in data set [1] and in data set [2] was 100% in each case. In addition, the mortality at 1.6 ppm in data set [1] and in data set [2] was 100% throughout. Also, the mortality at 8 ppm in data set [1] and in data set [2] was 100% throughout. In addition, the mortality at 40 ppm in data set [1] and in data set [2] was 100% throughout. Also, the “Degree of xylophagous damage” value in data set [2] (0.32 ppm), in data set [2] (1.6 ppm), in data set [2] (8 ppm) and in data set [2] (40 ppm) was 0 in each case.
